Data taken from patent US8293781B2, “Indole derivatives having cPLA2 inhibiting activity and applications and production methods of the same” (Daiichi Sankyo Company, Limited, priority 2007, dated 2012).
Where a name gives a salt, the structure may show the parent alone.

These compounds were tested against T1, cPLA2 crudely purified from the cytoplasm fraction of U937 (Homo sapiens, UniProt P47712) (assay: Measurement of cPLA2 inhibitory activity (release of [14C]-arachidonic acid from phosphatidyl choline liposome)). Conditions: cPLA2 from U937 cytoplasm fraction, [14C]arachidonyl-phosphatidyl choline liposome, 37° C., 60 minutes; read-out: cPLA2 inhibitory activity, 50% inhibiting concentration IC50.
T1 construct: cPLA2 crudely purified from the cytoplasm fraction of U937; endogenous in cells; host or cells: U937 cells (cytoplasm fraction, crude purification)
T1 sequence (P47712 1-749): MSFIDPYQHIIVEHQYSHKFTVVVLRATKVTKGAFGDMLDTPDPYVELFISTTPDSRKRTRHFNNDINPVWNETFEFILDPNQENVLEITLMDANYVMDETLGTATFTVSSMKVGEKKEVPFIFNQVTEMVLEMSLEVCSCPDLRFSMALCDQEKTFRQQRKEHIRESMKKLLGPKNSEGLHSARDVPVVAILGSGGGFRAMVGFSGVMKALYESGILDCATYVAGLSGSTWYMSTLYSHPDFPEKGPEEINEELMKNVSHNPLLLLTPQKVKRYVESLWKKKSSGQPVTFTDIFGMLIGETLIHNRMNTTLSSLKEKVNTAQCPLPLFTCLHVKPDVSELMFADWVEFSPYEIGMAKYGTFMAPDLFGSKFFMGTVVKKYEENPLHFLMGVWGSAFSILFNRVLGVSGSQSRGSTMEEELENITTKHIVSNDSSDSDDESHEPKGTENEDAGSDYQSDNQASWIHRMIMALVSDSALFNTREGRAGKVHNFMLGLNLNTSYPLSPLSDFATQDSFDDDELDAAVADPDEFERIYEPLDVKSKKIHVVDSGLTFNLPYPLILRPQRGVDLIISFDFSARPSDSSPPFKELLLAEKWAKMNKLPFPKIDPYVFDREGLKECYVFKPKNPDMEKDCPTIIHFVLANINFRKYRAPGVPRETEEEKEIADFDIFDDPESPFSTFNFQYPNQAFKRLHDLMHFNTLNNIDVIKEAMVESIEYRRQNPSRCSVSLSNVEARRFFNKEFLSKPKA
Format: biochemical
In short: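 The read-out is radioactivity from extracted [14C]-arachidonic acid, freed over 60 min at 37° C from liposomes of 14C-arachidonyl phosphatidylcholine (10 μM PC in the added solution). Buffer was 50 mM HEPES pH 7.5 with Ca2+, DTT, NaCl and BSA. IC50 was derived from inhibition relative to enzyme control minus no-enzyme control.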

IC50	Compound
182 nM	O=C(O)CCc1ccc2c(c1)c(Cc1ccccc1)cn2-c1ccccc1 [Example 8, 3-(3-benzyl-1-phenyl-1H-indol-5-yl)propanoic acid]
330 nM	CCC(C(=O)c1cn(-c2ccccc2)c2ccc(CCC(=O)O)cc12)c1ccccc1 (stereo not shown) [Example 36, 3-[1-phenyl-3-(2-phenylbutanoyl)-1H-indol-5-yl]propanoic acid 2-amino-2-(hydroxymethyl)propane-1,3-diol salt (1:1)]
> 3000 nM	CN(C)C(=O)c1cccc(-n2cc(CCc3ccccc3)c3cc(CCC(=O)O)ccc32)c1 [Example 314, 3-{1-[3-(dimethylcarbamoyl)phenyl]-3-(2-phenylethyl)-1H-indol-5-yl}propanoic acid]
49 nM	Nc1cccc(-n2cc(CCc3ccccc3)c3cc(CCC(=O)O)ccc32)c1 [Example 167, 3-[1-(3-aminophenyl)-3-(2-phenylethyl)-1H-indol-5-yl]propanoic acid]
662 nM	CC(Cc1cn(-c2ccccc2)c2ccc(/C=C/C(=O)O)cc12)c1ccccc1 (stereo not shown) [Example 33, (2E)-3-[1-phenyl-3-(2-phenylpropyl)-1H-indol-5-yl]-2-propenoic acid]
264 nM	O=C(O)CCc1ccc2c(c1)c(CCc1ccccc1)cn2-c1cc(F)c(OCc2ccccc2)c(F)c1 [Example 288, 3-{1-[4-(benzyloxy)-3,5-difluorophenyl]-3-(2-phenylethyl)-1H-indol-5-yl}propanoic acid 2-amino-2-(hydroxymethyl)propane-1,3-diol salt (1:1)]
338 nM	O=C(O)CCc1ccc2c(c1)c(CCc1ccccn1)cn2-c1ccccc1 [Example 264, 3-[1-phenyl-3-(2-pyridin-2-ylethyl)-1H-indol-5-yl]propanoic acid]

Continued, compound first:

Compound	IC50
CCCOc1ccc(-n2cc(CCc3ccccc3)c3cc(CCC(=O)O)ccc32)cc1 [Example 119, 3-[3-(2-phenylethyl)-1-(4-propoxyphenyl)-1H-indol-5-yl]propanoic acid]	7 nM
O=C(O)CCc1ccc2c(c1)c(CCc1ccccc1)cn2-c1cccc(F)c1 [Example 183, 3-[1-(3-fluorophenyl)-3-(2-phenylethyl)-1H-indol-5-yl]propanoic acid]	70 nM
Nc1ccccc1-n1cc(CCc2ccccc2)c2cc(CCC(=O)O)ccc21 [Example 151, 3-[1-(2-aminophen 1)-3-(2-phenylethyl)-1H-indol-5-yl]propanoic acid]	185 nM
CC(C(=O)c1cn(-c2ccccc2)c2ccc(CCC(=O)O)cc12)c1ccccc1 (stereo not shown) [Example 27, 3-[1-phenyl-3-(2-phenylpropanoyl)-1H-indol-5-yl]propanoic acid 2-amino-2-(hydroxymethyl)propane-1,3-diol salt (1:1)]	385 nM
CC(Cc1cn(-c2ccccc2)c2ccc(CCC(=O)O)cc12)c1ccccc1 (stereo not shown) [Example 28, 3-[1-phenyl-3-(2-phenylpropyl)-1H-indol-5-yl]propanoic acid 2-amino-2-(hydroxymethyl)propane-1,3-diol salt (1:1)]	258 nM
COc1cccc(CCc2cn(-c3ccccc3)c3ccc(CCC(=O)O)cc23)c1 [Example 68, 3-{3-[2-(3-methoxyphenyl)ethyl]-1-phenyl-1H-indol-5-yl}propanoic acid 2-amino-2-(hydroxymethyl)propane-1,3-diol salt (1:1)]	1000 nM
O=C(O)/C=C/c1ccc2c(c1)c(CCc1ccccc1)cn2-c1ccccc1 [Example 15, (2E)-3-[1-phenyl-3-(2-phenylethyl)-1H-indol-5-yl]-2-propenoic acid]	316 nM
O=C(O)CCc1ccc2c(c1)c(CCc1ccccc1)cn2-c1ccccc1[N+](=O)[O-] [Example 149, 3-[1-(2-nitrophenyl)-3-(2-phenylethyl)-1H-indol-5-yl]propanoic acid]	278 nM
O=C(O)CCc1ccc2c(c1)c(CCc1ccccc1)cn2-c1ccc(S(=O)(=O)N2CCOCC2)cc1 [Example 320, 3-{1-[4-(morpholin-4-ylsulfonyl)phenyl]-3-(2-phenylethyl)-1H-indol-5-yl}propanoic acid]	258 nM
